Values of other authors in PubChem BioAssay AID1259409 (Chemical Carcinogenesis Research Information System (CCRIS), 2018).

Test system: rodent chemically induced tumor inhibition, incidence and multiplicity
Assay: CCRIS tumor inhibitor studies
Conditions: Route [Inhibitor]: ORAL, Promoter: NONE USED

For CCNC(=O)/C=C(C)/C=C/C=C(C)/C=C/C1=C(C)CCCC1(C)C, the “tumour outcome (control, treated, inhibition, significance)” value (Carcinogen: N-METHYL-N-NITROSOUREA, 684-93-5, Dose [Inhibitor]: 2 MMOL/KG DIET DAILY STARTING 12 D AFTER CARCINOGEN TREATMENT THROUGH ABOUT 8 MO AFTER CARCINOGEN DOSE (STUDY DURATION:, Species: RAT, Strain/Sex: F344/MALE, Target Tissue: Type of Lesion: COLON: ADENOMA, Dose [Carcinogen]: 2.5 MG 1/WK FOR 2 WK) is given as 16/39 (41%), 10/30 (33%), 20%, not significant, the “tumour outcome (control, treated, inhibition, significance)” value (Carcinogen: N-METHYL-N-NITROSOUREA, 684-93-5, Dose [Inhibitor]: 327 MG/KG DIET DAILY STARTING 1 WK AFTER LAST CARCINOGEN TREATMENT AND CONTINUING FOR 6 MO (STUDY DURATION: 9 MO), Species: HAMSTER, Strain/Sex: SYRIAN/MALE, Target Tissue: Type of Lesion: TRACHEA: BENIGN EPITHELIAL NEOPLASM, Dose [Carcinogen]: 0.5% IN 1 ML PHOSPHATE-BUFFERED SALINE 1/WK FOR 12 WK) is given as 6/63 (10%), 12/63 (19%), -90%, not significant and the “tumour outcome (control, treated, inhibition, significance)” value (Carcinogen: N-METHYL-N-NITROSOUREA, 684-93-5, Dose [Inhibitor]: 327 MG/KG DIET DAILY STARTING 1 WK AFTER LAST CARCINOGEN TREATMENT AND CONTINUING FOR 6 MO (STUDY DURATION: 9 MO), Species: HAMSTER, Strain/Sex: SYRIAN/MALE, Target Tissue: Type of Lesion: TRACHEA: CARCINOMA, Dose [Carcinogen]: 0.5% IN 1 ML PHOSPHATE-BUFFERED SALINE 1/WK FOR 12 WK) is given as 4/63 (6%), 12/63 (19%), -217%, p<0.05. For the same compound, the “tumour outcome (control, treated, inhibition, significance)” value (Carcinogen: N-METHYL-N-NITROSOUREA, 684-93-5, Dose [Inhibitor]: 327 MG/KG DIET DAILY STARTING 1 WK AFTER LAST CARCINOGEN TREATMENT AND CONTINUING FOR 6 MO (STUDY DURATION: 9 MO), Species: HAMSTER, Strain/Sex: SYRIAN/MALE, Target Tissue: Type of Lesion: TRACHEA: EPITHELIAL NEOPLASM, Dose [Carcinogen]: 0.5% IN 1 ML PHOSPHATE-BUFFERED SALINE 1/WK FOR 12 WK) was 10/63 (16%), 24/63 (38%), -138%, p<0.01, the “tumour outcome (control, treated, inhibition, significance)” value (Carcinogen: N-METHYL-N-NITROSOUREA, 684-93-5, Dose [Inhibitor]: 327 MG/KG IN DIET DAILY FOR 6 MO STARTING 1 WK AFTER FINAL CARCINOGEN DOSE (STUDY DURATION: 9 MO), Species: HAMSTER, Strain/Sex: SYRIAN/MALE, Target Tissue: Type of Lesion: TRACHEA: BENIGN EPITHELIAL NEOPLASM, Dose [Carcinogen]: 0.5% SOLUTION FOR 5 SECOND EXPOSURE 1/WK FOR 12 WK) was 6/63 (10%), 12/63 (19%), -90%, not significant and the “tumour outcome (control, treated, inhibition, significance)” value (Carcinogen: N-METHYL-N-NITROSOUREA, 684-93-5, Dose [Inhibitor]: 327 MG/KG IN DIET DAILY FOR 6 MO STARTING 1 WK AFTER FINAL CARCINOGEN DOSE (STUDY DURATION: 9 MO), Species: HAMSTER, Strain/Sex: SYRIAN/MALE, Target Tissue: Type of Lesion: TRACHEA: CARCINOMA, Dose [Carcinogen]: 0.5% SOLUTION FOR 5 SECOND EXPOSURE 1/WK FOR 12 WK) was 4/63 (6%), 12/63 (19%), -216%, p<0.05. For the same compound, the “tumour outcome (control, treated, inhibition, significance)” value (Carcinogen: N-METHYL-N-NITROSOUREA, 684-93-5, Dose [Inhibitor]: 327 MG/KG IN DIET DAILY FOR 6 MO STARTING 1 WK AFTER FINAL CARCINOGEN DOSE (STUDY DURATION: 9 MO), Species: HAMSTER, Strain/Sex: SYRIAN/MALE, Target Tissue: Type of Lesion: TRACHEA: EPITHELIAL NEOPLASM, Dose [Carcinogen]: 0.5% SOLUTION FOR 5 SECOND EXPOSURE 1/WK FOR 12 WK) was 10/63 (16%), 24/63 (38%), -138%, p<0.01, the “tumour outcome (control, treated, inhibition, significance)” value (Carcinogen: N-METHYL-N-NITROSOUREA, 684-93-5, Dose [Inhibitor]: 654 MG/KG DIET DAILY FOR 24 WK STARTING 5 D AFTER LAST DOSE OF CARCINOGEN (STUDY DURATION: 32 WK), Species: RAT, Strain/Sex: F344/MALE, Target Tissue: Type of Lesion: COLON: SARCOMA, Dose [Carcinogen]: 0.5 MG 2/WK FOR 8 WK) was 5/40 (13%), 1/40 (3%), 77%, not calculated and the “tumour outcome (control, treated, inhibition, significance)” value (Carcinogen: N-METHYL-N-NITROSOUREA, 684-93-5, Dose [Inhibitor]: 654 MG/KG DIET DAILY FOR 24 WK STARTING 5 D AFTER LAST DOSE OF CARCINOGEN (STUDY DURATION: 32 WK), Species: RAT, Strain/Sex: F344/MALE, Target Tissue: Type of Lesion: COLON: TUMOR, Dose [Carcinogen]: 0.5 MG 2/WK FOR 8 WK) was 60%, 65%, -8%, not significant. For the same compound, the “tumour outcome (control, treated, inhibition, significance)” value (Carcinogen: N-METHYL-N-NITROSOUREA, 684-93-5, Dose [Inhibitor]: 654 MG/KG DIET DAILY FOR 38 WK STARTING 5 D AFTER LAST DOSE OF CARCINOGEN (STUDY DURATION: 44 WK), Species: RAT, Strain/Sex: F344/MALE, Target Tissue: Type of Lesion: COLON: TUMOR, Dose [Carcinogen]: 0.5 MG 2/WK FOR 6 WK) was 62%, 62%, 0%, not significant, the “tumour outcome (control, treated, inhibition, significance)” value (Carcinogen: N-METHYL-N-NITROSOUREA, 684-93-5, Dose [Inhibitor]: 654 MG/KG DIET DAILY FOR 48 WK STARTING 5 D AFTER LAST DOSE OF CARCINOGEN (STUDY DURATION: 52 WK), Species: RAT, Strain/Sex: F344/MALE, Target Tissue: Type of Lesion: COLON: TUMOR, Dose [Carcinogen]: 0.5 MG 2/WK FOR 4 WK) was 31%, 30%, 3%, not significant and the “tumour outcome (control, treated, inhibition, significance)” value (Carcinogen: N-NITROBIS(2-OXOPROPYL)AMINE, 60559-38-4, Dose [Inhibitor]: 0.5 OR 1.0 MMOL/KG DIET DAILY STARTING 1 WK AFTER CARCINOGEN TREATMENT AND CONTINUING THROUGH THE END OF THE STUDY (STUD, Species: HAMSTER, Strain/Sex: SYRIAN/FEMALE, Target Tissue: Type of Lesion: LIVER: BENIGN TUMOR, Dose [Carcinogen]: 40 MG/KG BW ONCE) was 4/20 (20%), 17/37 (46%), -130%, not significant. The “tumour outcome (control, treated, inhibition, significance)” value (Carcinogen: N-NITROBIS(2-OXOPROPYL)AMINE, 60559-38-4, Dose [Inhibitor]: 0.5 OR 1.0 MMOL/KG DIET DAILY STARTING 1 WK AFTER CARCINOGEN TREATMENT AND CONTINUING THROUGH THE END OF THE STUDY (STUD, Species: HAMSTER, Strain/Sex: SYRIAN/FEMALE, Target Tissue: Type of Lesion: ND: TOTAL TUMOR, Dose [Carcinogen]: 40 MG/KG BW ONCE) was 17/20 (85%), 32/37 (86%), 1%, not significant, the “tumour outcome (control, treated, inhibition, significance)” value (Carcinogen: N-NITROBIS(2-OXOPROPYL)AMINE, 60559-38-4, Dose [Inhibitor]: 0.5 OR 1.0 MMOL/KG DIET DAILY STARTING 1 WK AFTER CARCINOGEN TREATMENT AND CONTINUING THROUGH THE END OF THE STUDY (STUD, Species: HAMSTER, Strain/Sex: SYRIAN/FEMALE, Target Tissue: Type of Lesion: PANCREAS: DUCTULAR ADENOMA, Dose [Carcinogen]: 10 MG/KG BW ONCE) was 5/23 (23%), 13/25 (52%), -126%, not significant and the “tumour outcome (control, treated, inhibition, significance)” value (Carcinogen: N-NITROBIS(2-OXOPROPYL)AMINE, 60559-38-4, Dose [Inhibitor]: 0.5 OR 1.0 MMOL/KG DIET DAILY STARTING 1 WK AFTER CARCINOGEN TREATMENT AND CONTINUING THROUGH THE END OF THE STUDY (STUD, Species: HAMSTER, Strain/Sex: SYRIAN/FEMALE, Target Tissue: Type of Lesion: PANCREAS: DUCTULAR ADENOMA, Dose [Carcinogen]: 40 MG/KG BW ONCE) was 12/20 (60%), 27/37 (73%), -22%, not significant. The “tumour outcome (control, treated, inhibition, significance)” value (Carcinogen: N-NITROBIS(2-OXOPROPYL)AMINE, 60559-38-4, Dose [Inhibitor]: 0.5 OR 1.0 MMOL/KG DIET DAILY STARTING 1 WK AFTER CARCINOGEN TREATMENT AND CONTINUING THROUGH THE END OF THE STUDY (STUD, Species: HAMSTER, Strain/Sex: SYRIAN/FEMALE, Target Tissue: Type of Lesion: PANCREAS: DUCTULAR CARCINOMA, Dose [Carcinogen]: 10 MG/KG BW ONCE) was 6/23 (27%), 6/25 (24%), 11%, not significant, the “tumour outcome (control, treated, inhibition, significance)” value (Carcinogen: N-NITROBIS(2-OXOPROPYL)AMINE, 60559-38-4, Dose [Inhibitor]: 0.5 OR 1.0 MMOL/KG DIET DAILY STARTING 1 WK AFTER CARCINOGEN TREATMENT AND CONTINUING THROUGH THE END OF THE STUDY (STUD, Species: HAMSTER, Strain/Sex: SYRIAN/MALE, Target Tissue: Type of Lesion: LIVER: BENIGN TUMOR, Dose [Carcinogen]: 40 MG/KG BW ONCE) was 5/24 (21%), 25/41 (62%), -195%, p<0.05 and the “tumour outcome (control, treated, inhibition, significance)” value (Carcinogen: N-NITROBIS(2-OXOPROPYL)AMINE, 60559-38-4, Dose [Inhibitor]: 0.5 OR 1.0 MMOL/KG DIET DAILY STARTING 1 WK AFTER CARCINOGEN TREATMENT AND CONTINUING THROUGH THE END OF THE STUDY (STUD, Species: HAMSTER, Strain/Sex: SYRIAN/MALE, Target Tissue: Type of Lesion: ND: TOTAL TUMOR, Dose [Carcinogen]: 10 MG/KG BW ONCE) was 12/22 (54%), 24/31 (77%), -43%, not significant.
